Measured values from patent publication US20250163370A1, “METHOD FOR INDUCING DIFFERENTIATION OF PLURIPOTENT STEM CELLS INTO RETINAL PIGMENT […]” (OSAKA UNIVERSITY, priority 2022, published 2025).
“Also recorded” adds a separate entry of the source.

Tested on: Human skin-derived iPS cells (253G1)
Assay type: cell-based

Question: Which “differentiation into other cells (RPE cell versus cell group with fibroblast-like morphology)” value does the source give for hemagglutinin [HA complex] here?
Answer: <<cell group; also recorded: <cell group

Question: And the “formation of cell aggregates in three-dimensional layer structure” value?
Answer: small cell; also recorded: smaller cell

Question: What about the “intercellular adhesion of the cell aggregates” value of the same substance?
Answer: moderately loosened

Question: What about the “number of cells that differentiated into RPE cells” value of the same substance?
Answer: increased strikingly

Question: What about the “number of fibroblast-like cell groups (undesired cells observed together with RPE cells)” value of the same substance?
Answer: decreased

Question: And the “size of the cell aggregates” value?
Answer: became smaller
